Converted amounts (≈) assume the structure as drawn. The source made the active and inactive calls. No cut-off for these calls is given here.
Experiments:
[1] = Clearance in Wistar rat at 1 mg/kg, iv measured upto 24 hrs by LC-MS/MS analysis; assay type: ADME, organism-based; settings: in vivo
[2] = in vivo; settings: Sprague-Dawley, rat, iv, 1 mg/kg
[3] = Cmax in Wistar rat at 30 mg/kg, po measured upto 24 hrs by LC-MS/MS analysis; assay type: ADME, organism-based; design: time < 24 hrs, dose 30 mg/kg, route po; settings: in vivo
[4] = Drug concentration in blood of arachidonic acid-induced skin inflammation 129S2/SvPasCrl mouse model at 0.03 mg/kg, po measured after 4 hrs; assay type: ADME, organism-based; settings: read-out: Ct
[5] = Inhibition of arachidonic acid-stimulated LTB4 release in skin inflammation 129S2/SvPasCrl mouse model at 3 mg/kg, po pretreated with compound for 4 hrs followed by arachidonic acid stimulation and measured after 1 hr; assay type: functional; settings: time 5 hrs
[6] = Inhibition of neutrophil influx in arachidonic acid-stimulated skin inflammation 129S2/SvPasCrl mouse model assessed as effect on MPO level in skin at 0.03 mg/kg, po pretreated with compound for 4 hrs followed by arachidonic acid stimulation and measured after 1 hr; assay type: functional; settings: time 5 hrs
[7] = Inhibition of neutrophil influx in arachidonic acid-stimulated skin inflammation 129S2/SvPasCrl mouse model assessed as effect on MPO level in skin at 0.3 mg/kg, po pretreated with compound for 4 hrs followed by arachidonic acid stimulation and measured after 1 hr; assay type: functional; settings: time 5 hrs
[8] = molecular target: T1, Voltage-gated inwardly rectifying potassium channel KCNH2 (Homo sapiens, UniProt Q12809)
T1 sequence (Q12809 whole entry): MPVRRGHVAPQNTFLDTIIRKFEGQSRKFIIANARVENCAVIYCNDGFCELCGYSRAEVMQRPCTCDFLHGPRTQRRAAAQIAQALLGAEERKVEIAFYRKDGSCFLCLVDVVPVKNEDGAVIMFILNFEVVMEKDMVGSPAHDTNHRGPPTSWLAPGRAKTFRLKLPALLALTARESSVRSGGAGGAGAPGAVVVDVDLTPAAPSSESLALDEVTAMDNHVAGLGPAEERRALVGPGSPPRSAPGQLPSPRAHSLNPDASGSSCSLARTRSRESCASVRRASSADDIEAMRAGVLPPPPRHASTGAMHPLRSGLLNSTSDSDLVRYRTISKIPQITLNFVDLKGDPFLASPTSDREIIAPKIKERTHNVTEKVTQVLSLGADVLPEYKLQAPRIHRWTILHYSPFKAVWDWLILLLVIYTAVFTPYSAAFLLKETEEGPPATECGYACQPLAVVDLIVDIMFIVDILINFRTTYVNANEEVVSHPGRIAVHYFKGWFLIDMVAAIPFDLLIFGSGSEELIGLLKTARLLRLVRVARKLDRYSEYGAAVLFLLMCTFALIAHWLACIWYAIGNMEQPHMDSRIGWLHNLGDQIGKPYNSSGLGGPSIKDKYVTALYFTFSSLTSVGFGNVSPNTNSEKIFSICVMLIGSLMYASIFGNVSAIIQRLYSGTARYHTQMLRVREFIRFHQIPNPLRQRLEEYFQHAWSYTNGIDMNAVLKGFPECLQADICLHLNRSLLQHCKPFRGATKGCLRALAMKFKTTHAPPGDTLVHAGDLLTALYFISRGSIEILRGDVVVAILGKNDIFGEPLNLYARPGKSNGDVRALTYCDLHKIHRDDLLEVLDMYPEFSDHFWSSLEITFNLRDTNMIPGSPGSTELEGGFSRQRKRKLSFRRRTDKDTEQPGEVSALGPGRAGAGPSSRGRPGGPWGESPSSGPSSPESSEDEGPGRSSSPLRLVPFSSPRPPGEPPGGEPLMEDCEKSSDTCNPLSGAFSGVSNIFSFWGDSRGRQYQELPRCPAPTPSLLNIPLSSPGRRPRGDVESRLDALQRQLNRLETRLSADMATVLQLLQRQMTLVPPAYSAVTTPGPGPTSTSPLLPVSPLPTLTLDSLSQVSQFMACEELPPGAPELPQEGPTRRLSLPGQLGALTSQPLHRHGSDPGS

[9] = in vivo; settings: Sprague-Dawley, rat, iv, 1 mg/kg; remark: listed apart in the source
[10] = Cmax in C57BL/6 mouse at 3 mg/kg, po measured upto 24 hrs by LC-MS/MS analysis; assay type: ADME, organism-based; design: time < 24 hrs, dose 3 mg/kg, route po; settings: in vivo
[11] = in vivo; settings: Sprague-Dawley, rat, iv, 1 mg/kg; remark: listed apart in the source
[12] = Metabolic stability in dog hepatocyte assessed as intrinsic clearance; assay type: ADME, cell-based, Canis lupus familiaris; settings: hepatocytes
[13] = in vivo; settings: C57BL/6, mouse, in vivo, po, 10 mg/kg
[14] = Inhibition of arachidonic acid-stimulated LTB4 release in skin inflammation 129S2/SvPasCrl mouse model at 0.03 mg/kg, po pretreated with compound for 4 hrs followed by arachidonic acid stimulation and measured after 1 hr; assay type: functional; settings: time 5 hrs
[15] = Metabolic stability in rat hepatocyte assessed as intrinsic clearance; assay type: ADME, cell-based; settings: hepatocytes
[16] = Oral bioavailability in dog at 3 mg/kg measured upto 24 hrs by LC-MS/MS analysis; assay type: ADME, organism-based, Canis lupus familiaris; settings: in vivo
[17] = tested on: Mus musculus; assay: Antiarthritic activity in KRN passive serum-induced arthritis C57BL/6 mouse model assessed as reduction in tissue destruction at 0.1 to 10 mg/kg, po bid measured on day 7 at 2 hrs after first dose and 14 hrs after second dose; assay type: functional, organism-based; settings: dose 0.1-10 mg/kg, time 7.0 day
[18] = Solubility of compound in SGF at pH […]; assay type: physicochemical
[19] = in vivo; settings: Sprague-Dawley, rat, po, 3 mg/kg
[20] = tested on: Mus musculus; assay: Antiarthritic activity in KRN passive serum-induced arthritis C57BL/6 mouse model assessed as reduction in paw swelling at 0.1 to 10 mg/kg, po bid measured on day 7 at 2 hrs after first dose and 14 hrs after second dose; assay type: functional, organism-based; settings: dose 0.1-10 mg/kg, time 7.0 day
[21] = Cmax in Wistar rat at 3 mg/kg, po measured upto 24 hrs by LC-MS/MS analysis; assay type: ADME, organism-based; design: dose 3 mg/kg, time < 24 hrs, route po; settings: in vivo
[22] = Clearance in dog at 1 mg/kg, iv measured upto 24 hrs by LC-MS/MS analysis; assay type: ADME, organism-based, Canis lupus familiaris; settings: in vivo
[23] = Oral bioavailability in C57BL/6 mouse at 3 mg/kg measured upto 24 hrs by LC-MS/MS analysis; assay type: ADME, organism-based; settings: in vivo
[24] = Inhibition of calcium ionophore A23187-stimulated LTB4 release in C57BL/6 mouse model at 10 mg/kg, po bid measured after 24 hrs; assay type: functional
[25] = in vitro; settings: human, liver microsomes
[26] = Oral bioavailability in Wistar rat at 30 mg/kg measured upto 24 hrs by LC-MS/MS analysis; assay type: ADME, organism-based; settings: in vivo
[27] = physchem; settings: buffer, pH 6.8
[28] = molecular target: T2, Leukotriene A-4 hydrolase (Homo sapiens, UniProt P09960); assay: Inhibition of LTA4H in human whole blood assessed as ionophore-stimulated LTB4 release preincubated for 15 mins by competitive immunoassay; assay type: tissue-based
T2 sequence (P09960 whole entry): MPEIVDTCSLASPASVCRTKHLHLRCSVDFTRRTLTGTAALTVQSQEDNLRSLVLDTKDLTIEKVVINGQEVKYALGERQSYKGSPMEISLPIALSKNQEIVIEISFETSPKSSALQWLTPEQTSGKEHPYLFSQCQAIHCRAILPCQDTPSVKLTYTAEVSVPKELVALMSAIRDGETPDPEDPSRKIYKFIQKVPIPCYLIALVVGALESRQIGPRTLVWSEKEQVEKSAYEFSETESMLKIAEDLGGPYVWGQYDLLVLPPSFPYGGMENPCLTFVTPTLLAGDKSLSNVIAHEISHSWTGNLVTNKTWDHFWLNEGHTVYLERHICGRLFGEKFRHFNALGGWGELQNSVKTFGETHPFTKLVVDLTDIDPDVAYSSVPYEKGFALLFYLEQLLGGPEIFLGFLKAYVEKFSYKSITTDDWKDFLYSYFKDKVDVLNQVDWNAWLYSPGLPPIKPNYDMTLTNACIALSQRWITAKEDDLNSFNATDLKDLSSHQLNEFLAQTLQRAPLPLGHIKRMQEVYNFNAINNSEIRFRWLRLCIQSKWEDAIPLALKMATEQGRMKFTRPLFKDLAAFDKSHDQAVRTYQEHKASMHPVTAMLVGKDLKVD

[29] = Clearance in C57BL/6 mouse at 1 mg/kg, iv measured upto 24 hrs by LC-MS/MS analysis; assay type: ADME, organism-based; settings: in vivo
[30] = Volume of distribution at steady state in Wistar rat at 1 mg/kg, iv measured upto 24 hrs by LC-MS/MS analysis; assay type: ADME, organism-based; settings: in vivo, read-out: Vdss
[31] = AUC (0 to infinity) in C57BL/6 mouse at 3 mg/kg, po measured upto 24 hrs by LC-MS/MS analysis; assay type: ADME, organism-based; design: time < 24 hrs, dose 3 mg/kg, route po; settings: in vivo
[32] = Half life in Wistar rat at 1 mg/kg, iv measured upto 24 hrs by LC-MS/MS analysis; assay type: ADME, organism-based; settings: in vivo
[33] = molecular target: T1, Voltage-gated inwardly rectifying potassium channel KCNH2; remark: listed apart in the source
[34] = AUC (0 to infinity) in Wistar rat at 30 mg/kg, po measured upto 24 hrs by LC-MS/MS analysis; assay type: ADME, organism-based; design: dose 30 mg/kg, time < 24 hrs, route po; settings: in vivo
[35] = in vivo; settings: Sprague-Dawley, rat, iv, 1 mg/kg; remark: listed apart in the source
[36] = in vitro; settings: mouse, liver microsomes
[37] = in vitro; settings: dog, MDCK
[38] = Half life in dog at 1 mg/kg, iv measured upto 24 hrs by LC-MS/MS analysis; assay type: ADME, organism-based, Canis lupus familiaris; settings: in vivo

clearance [1]: 7.3 mL/min/kg
Vd [2]: 5.5 L/kg
Cmax [3]: 5490 nM
concentration at 4 h [4]: 79 nM
clearance [9]: 20 mL/min/kg
Cmax [10]: 443 nM
bioavailability [11]: 57%
CLH [12]: 6 µL/min/mg
concentration at 24 h [13]: 218 nM
CLH [15]: 20 µL/min/mg
bioavailability [16]: 39%
solubility [18]: 27 µg/mL (≈ 68.5 µM)
AUC(0-inf) [19]: 3.87 µM·h
Cmax [21]: 351 nM
clearance [22]: 2.2 mL/min/kg
bioavailability [23]: 32%
microsomal CLint [25]: < 25 µL/min/mg
bioavailability [26]: 46%
solubility [27]: 180 µM (≈ 71 µg/mL)
IC50 [28]: 0.047 µM
clearance [29]: 7.5 mL/min/kg
Vd [30]: 6.9 L/kg
AUC(0-inf) [31]: 5.51 µM·h
half-life [32]: 13 h
AUC(0-inf) [34]: 59.2 µM·h
Cmax [35]: 298 nM
microsomal CLint [36]: 90 µL/min/mg
Papp A→B [37]: 12 ×10⁻⁶ cm/s
half-life [38]: 40 h
Structure (SMILES): N[C@H](CO)Cn1ccc(-c2ccc(Oc3ncc(-c4cc[nH]n4)cc3F)cc2)n1
inhibition in vivo at 3 mg/kg [5]: 97%
inhibition in vivo at 0.03 mg/kg [6]: 52%
inhibition in vivo at 0.3 mg/kg [7]: 81%
IC50 [8]: 27 µM
inhibition in vivo at 0.03 mg/kg [14]: 74%
Activity [17]: Active
Activity [20]: Active
inhibition in vivo at 10 mg/kg [24]: 93%
IC50 [33]: > 30 µM
